In BindingDB's records for doi:10.1021/jm051064t (P. Angeletti S.P.A. (Merck Research Laboratories), 2006):

Test: Inhibition of replication of HCV 1b BK RNA in Huh7 cells

SMILES: O=C(NCc1ccccc1Cl)Nc1ccsc1-c1nc(C(=O)O)c(O)c(=O)[nH]1 [2-(3-(3-(2-chlorobenzyl)ureido)thiophen-2-yl)-5,6-dihydroxypyrimidine-4-carboxylic acid]
- EC50: 3.1 µM
